{
  "source": "patent US20090041617A1",
  "about": "“PURIFIED HYDROGEN PEROXIDE GAS MICROBIAL CONTROL METHODS AND DEVICES” (priority 2007, published 2009)",
  "key": {"[1]": {"tested_on": "A. niger (ATCC 16404)", "conditions": "for Average CFU/Test carrier (Survivors in the test) / Percent Reduction Compared to Corresponding Natural Die-off / Percent Reduction as Compared to Time Zero Control: PHPG 0.005-0.01 ppm, 35%-40% relative humidity", "text": "(§1) The device was subjected to tests designed and implemented by two accredited laboratories to: (a) measure the output of Purified Hydrogen Peroxide Gas (PHPG); (b) confirm that the output was substantially free of ozone; (c) confirm that the output was substantially free of VOC's; (d) measure the efficacy of PHPG against the Feline Calicivirus (an EPA-approved substitute for noroviruses), Methicillin Resistant Staphylococcus Aureous (MRSA), Vancomyacin Resistant Enterococcus Faecalis (VRE), Clostridium Difficile (C-Diff), Geobacillus Stearothermophilus, (a stable bacteria used by the insurance industry to verify successful microbial remediation), and Aspergillus Niger (a common fungus); and (e) test at a variety of ambient relative humidities including 35% to 40% at 70 to 72 degrees Fahrenheit, 56% to 59% at 81 to 85 degrees Fahrenheit, and 98% at 78 degrees Fahrenheit.\n(§2) In quantitative microbial testing at ATS labs in Eagan, Minn. the following data was collected."}, "[2]": {"tested_on": "C. difficile (ATCC 700792)", "conditions": "for Average CFU/Test carrier (Survivors in the test) / Percent Reduction Compared to Corresponding Natural Die-off / Percent Reduction as Compared to Time Zero Control: PHPG 0.005-0.01 ppm, 35%-40% relative humidity", "text": "as §1, §2"}, "[3]": {"tested_on": "Feline Calicivirus (Norovirus substitute)", "conditions": "for Average Virus Infectivity Observed After Exposure / Percent Reduction Compared to Corresponding Natural Die-off / Percent Reduction as Compared to Time Zero Virus Control: PHPG 0.005-0.01 ppm, 35%-40% relative humidity", "text": "as §1, §2"}, "[4]": {"tested_on": "MRSA (ATCC 33592)", "conditions": "for Average CFU/Test carrier (Survivors in the test) / Percent Reduction Compared to Corresponding Natural Die-off / Percent Reduction as Compared to Time Zero Control: PHPG 0.005-0.01 ppm, 35%-40% relative humidity", "text": "as §1, §2"}, "[5]": {"tested_on": "VRE (ATCC 51575)", "conditions": "for Average CFU/Test carrier (Survivors in the test) / Percent Reduction Compared to Corresponding Natural Die-off / Percent Reduction as Compared to Time Zero Control: PHPG 0.005-0.01 ppm, 35%-40% relative humidity", "text": "as §1, §2"}, "[6]": {"tested_on": "Geobacillus Stearothermophilus", "text": "as §1"}, "[7]": {"conditions": "PHPG about 0.005 ppm to about 0.10 ppm in the environment"}},
  "note": "Like-named read-outs stand apart in the source and are kept apart here.",
  "data": [
    {"smiles": "OO", "note": "[PHPG, Purified Hydrogen Peroxide Gas]", "values": [
      {"measurement": "Average CFU/Test carrier (Survivors in the test)", "setting": "[1]; 2 hours", "value": "1.9 × 10^5 CFU/ CFU/Carrier"},
      {"measurement": "Percent Reduction Compared to Corresponding Natural Die-off", "setting": "[1]; 2 hours", "value": 13.6, "unit": "%"},
      {"measurement": "Percent Reduction as Compared to Time Zero Control", "setting": "[1]; 2 hours", "value": 19.1, "unit": "%"},
      {"measurement": "Average CFU/Test carrier (Survivors in the test)", "setting": "[1]; 6 hours", "value": "4.67 × 10^4 CFU/ CFU/Carrier"},
      {"measurement": "Percent Reduction Compared to Corresponding Natural Die-off", "setting": "[1]; 6 hours", "value": 81.3, "unit": "%"},
      {"measurement": "Percent Reduction as Compared to Time Zero Control", "setting": "[1]; 6 hours", "value": 80.1, "unit": "%"},
      {"measurement": "Average CFU/Test carrier (Survivors in the test)", "setting": "[1]; 24 hours", "value": "1.2 × 10^4 CFU/ CFU/Carrier"},
      {"measurement": "Percent Reduction Compared to Corresponding Natural Die-off", "setting": "[1]; 24 hours", "value": 90.8, "unit": "%"},
      {"measurement": "Percent Reduction as Compared to Time Zero Control", "setting": "[1]; 24 hours", "value": 94.9, "unit": "%"},
      {"measurement": "efficacy in words", "setting": "[1]; [7]", "value": "proven effective"},
      {"measurement": "Average CFU/Test carrier (Survivors in the test)", "setting": "[2]; 2 hours", "value": "2.18 × 10^5 CFU/ CFU/Carrier"},
      {"measurement": "Percent Reduction Compared to Corresponding Natural Die-off", "setting": "[2]; 2 hours", "value": 9.2, "unit": "%"},
      {"measurement": "Percent Reduction as Compared to Time Zero Control", "setting": "[2]; 2 hours", "value": 27.3, "unit": "%"},
      {"measurement": "Average CFU/Test carrier (Survivors in the test)", "setting": "[2]; 6 hours", "value": "1.1 × 10^5 CFU/ CFU/Carrier"},
      {"measurement": "Percent Reduction Compared to Corresponding Natural Die-off", "setting": "[2]; 6 hours", "value": 60.6, "unit": "%"},
      {"measurement": "Percent Reduction as Compared to Time Zero Control", "setting": "[2]; 6 hours", "value": 63.3, "unit": "%"},
      {"measurement": "Average CFU/Test carrier (Survivors in the test)", "setting": "[2]; 24 hours", "value": "7.3 × 10^4 CFU/ CFU/Carrier"},
      {"measurement": "Percent Reduction Compared to Corresponding Natural Die-off", "setting": "[2]; 24 hours", "value": 70.4, "unit": "%"},
      {"measurement": "Percent Reduction as Compared to Time Zero Control", "setting": "[2]; 24 hours", "value": 75.7, "unit": "%"},
      {"measurement": "efficacy in words", "setting": "[2]; [7]", "value": "proven effective"},
      {"measurement": "efficacy in words", "setting": "[3]; [7]", "value": "proven effective"},
      {"measurement": "Average Virus Infectivity Observed After Exposure", "setting": "[3]; exposure 2 hrs", "value": 4.3, "unit": "log10"},
      {"measurement": "Percent Reduction Compared to Corresponding Natural Die-off", "setting": "[3]; exposure 2 hrs", "value": 96.8, "unit": "%"},
      {"measurement": "Percent Reduction as Compared to Time Zero Virus Control", "setting": "[3]; exposure 2 hrs", "value": 99.5, "unit": "%"},
      {"measurement": "Average Virus Infectivity Observed After Exposure", "setting": "[3]; exposure 6 hrs", "value": 2.3, "unit": "log10"},
      {"measurement": "Percent Reduction Compared to Corresponding Natural Die-off", "setting": "[3]; exposure 6 hrs", "value": 99.8, "unit": "%"},
      {"measurement": "Percent Reduction as Compared to Time Zero Virus Control", "setting": "[3]; exposure 6 hrs", "value": 99.995, "unit": "%"},
      {"measurement": "Percent Reduction Compared to Corresponding Natural Die-off", "setting": "[3]; exposure 24 hrs", "value": 99.8, "unit": "%"},
      {"measurement": "Percent Reduction as Compared to Time Zero Virus Control", "setting": "[3]; exposure 24 hrs", "value": "≧99.9999%"},
      {"measurement": "Average Virus Infectivity Observed After Exposure", "setting": "[3]; exposure 24 hrs, virus detected in only one replicate", "value": "≦0.6 log10"},
      {"measurement": "Average CFU/Test carrier (Survivors in the test)", "setting": "[4]; 2 hours", "value": "<1 (no survivors) CFU/Test carrier"},
      {"measurement": "Percent Reduction Compared to Corresponding Natural Die-off", "setting": "[4]; 2 hours", "value": ">99.9999", "unit": "%"},
      {"measurement": "Percent Reduction as Compared to Time Zero Control", "setting": "[4]; 2 hours", "value": ">99.9999", "unit": "%"},
      {"measurement": "Average CFU/Test carrier (Survivors in the test)", "setting": "[4]; 6 hours", "value": "<1 (no survivors) CFU/Test carrier"},
      {"measurement": "Percent Reduction Compared to Corresponding Natural Die-off", "setting": "[4]; 6 hours", "value": ">99.9999", "unit": "%"},
      {"measurement": "Percent Reduction as Compared to Time Zero Control", "setting": "[4]; 6 hours", "value": ">99.9999", "unit": "%"},
      {"measurement": "Average CFU/Test carrier (Survivors in the test)", "setting": "[4]; 24 hours", "value": "<1 (no survivors) CFU/Test carrier"},
      {"measurement": "Percent Reduction Compared to Corresponding Natural Die-off", "setting": "[4]; 24 hours", "value": ">99.9999", "unit": "%"},
      {"measurement": "Percent Reduction as Compared to Time Zero Control", "setting": "[4]; 24 hours", "value": ">99.9999", "unit": "%"},
      {"measurement": "efficacy in words", "setting": "[4]; [7]", "value": "proven effective"},
      {"measurement": "Average CFU/Test carrier (Survivors in the test)", "setting": "[5]; 2 hours", "value": "<1 (no survivors) CFU/Test carrier"},
      {"measurement": "Percent Reduction Compared to Corresponding Natural Die-off", "setting": "[5]; 2 hours", "value": ">99.999", "unit": "%"},
      {"measurement": "Percent Reduction as Compared to Time Zero Control", "setting": "[5]; 2 hours", "value": ">99.9999", "unit": "%"},
      {"measurement": "Average CFU/Test carrier (Survivors in the test)", "setting": "[5]; 6 hours", "value": "<1 (no survivors) CFU/Test carrier"},
      {"measurement": "Percent Reduction Compared to Corresponding Natural Die-off", "setting": "[5]; 6 hours", "value": ">99.99", "unit": "%"},
      {"measurement": "Percent Reduction as Compared to Time Zero Control", "setting": "[5]; 6 hours", "value": ">99.9999", "unit": "%"},
      {"measurement": "Average CFU/Test carrier (Survivors in the test)", "setting": "[5]; 24 hours", "value": "<1 (no survivors) CFU/Test carrier"},
      {"measurement": "Percent Reduction Compared to Corresponding Natural Die-off", "setting": "[5]; 24 hours", "value": ">99.9", "unit": "%"},
      {"measurement": "Percent Reduction as Compared to Time Zero Control", "setting": "[5]; 24 hours", "value": ">99.9999", "unit": "%"},
      {"measurement": "efficacy in words", "setting": "[5]; [7]", "value": "proven effective"},
      {"measurement": "efficacy in words", "setting": "[6]; [7]", "value": "proven effective"},
      {"measurement": "reduction of the bacteria on inoculated chips", "setting": "[6]; several tests, all cases, within a matter of hours", "value": "significant reduction"}
    ]}
  ]
}
